Consider 14 compounds from patent US9944654B2, “Nargenicin compounds and uses thereof as antibacterial agents” (priority 2014, dated 2018).

≈ marks a conversion by molar mass, not a printed value. Where two headings read alike, the source gives them in different places.

The term IC50 denotes the midpoint of a concentration-inhibition curve.

For assay [1], the system named is Drug susceptible M. tuberculosis clinical isolates. Type of assay: cell-based, Mycobacterium tuberculosis. To be noted: M. tuberculosis clinical isolates (MTB panel).
The target of assay [2] is T1, S. aureus DnaE (DNA polymerase III α-subunit homolog from Staphylococcus aureus) (Staphylococcus aureus, UniProt Q5HF71).
T1 construct: SaDnaE (S. aureus DnaE residues 1-1065); 6xHis (N); made in house; host or cells: E. coli BL21-AI
T1 sequence (Q5HF71 1-1065): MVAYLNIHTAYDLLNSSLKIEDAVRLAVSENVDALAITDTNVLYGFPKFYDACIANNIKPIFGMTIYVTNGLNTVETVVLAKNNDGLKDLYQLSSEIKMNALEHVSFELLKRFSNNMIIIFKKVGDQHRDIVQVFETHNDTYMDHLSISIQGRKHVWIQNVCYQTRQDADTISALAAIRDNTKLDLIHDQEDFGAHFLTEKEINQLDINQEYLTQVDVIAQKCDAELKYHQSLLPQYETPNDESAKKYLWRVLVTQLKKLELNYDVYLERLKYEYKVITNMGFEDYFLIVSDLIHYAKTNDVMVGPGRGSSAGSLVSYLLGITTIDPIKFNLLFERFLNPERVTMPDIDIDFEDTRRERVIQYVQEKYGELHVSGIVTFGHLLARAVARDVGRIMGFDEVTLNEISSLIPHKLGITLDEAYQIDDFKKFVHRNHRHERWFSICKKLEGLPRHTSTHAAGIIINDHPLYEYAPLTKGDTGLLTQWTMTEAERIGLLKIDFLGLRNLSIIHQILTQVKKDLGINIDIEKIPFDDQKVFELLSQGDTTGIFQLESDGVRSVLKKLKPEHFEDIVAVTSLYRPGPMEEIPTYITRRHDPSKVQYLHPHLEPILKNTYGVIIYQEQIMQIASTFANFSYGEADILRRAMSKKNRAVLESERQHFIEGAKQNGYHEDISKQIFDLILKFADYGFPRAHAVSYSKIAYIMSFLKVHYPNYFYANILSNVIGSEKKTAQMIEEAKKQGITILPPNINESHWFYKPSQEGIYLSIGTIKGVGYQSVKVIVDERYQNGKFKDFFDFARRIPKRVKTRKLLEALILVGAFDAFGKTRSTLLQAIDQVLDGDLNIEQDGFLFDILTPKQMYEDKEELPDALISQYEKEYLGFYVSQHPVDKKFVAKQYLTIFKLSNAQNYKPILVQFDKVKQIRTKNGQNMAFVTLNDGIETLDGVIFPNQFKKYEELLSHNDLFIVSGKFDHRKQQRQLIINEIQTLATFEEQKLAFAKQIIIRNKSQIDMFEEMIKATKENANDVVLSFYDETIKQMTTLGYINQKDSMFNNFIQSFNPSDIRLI
Kind of assay: biochemical. It is filed as biochemical. The following applies: for IC50: S. aureus DnaE IC50. In a few lines:
(§1)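 His-tagged E. coli DnaE (residues 1-1160, 0.8 μg/ml) or S. aureus DnaE (residues 1-1065, 0.05 μg/ml) incubated 30 min at 30° C. with activated calf thymus DNA, 0.025 mM dATP/dGTP/dCTP and 0.011 mM 3H-dTTP in Tris pH 7.5/Mg acetate. TCA-precipitated labelled DNA counted.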

Assay [3] deals with T2, E. coli DnaE (DNA polymerase III α-subunit from Escherichia coli) (Escherichia coli, UniProt P10443).
T2 construct: EcDnaE (E. coli DnaE residues 1-1160); 6xHis (N); made in house; host or cells: E. coli BL21(DE3)
T2 sequence (P10443 whole entry, the tested form may be a part): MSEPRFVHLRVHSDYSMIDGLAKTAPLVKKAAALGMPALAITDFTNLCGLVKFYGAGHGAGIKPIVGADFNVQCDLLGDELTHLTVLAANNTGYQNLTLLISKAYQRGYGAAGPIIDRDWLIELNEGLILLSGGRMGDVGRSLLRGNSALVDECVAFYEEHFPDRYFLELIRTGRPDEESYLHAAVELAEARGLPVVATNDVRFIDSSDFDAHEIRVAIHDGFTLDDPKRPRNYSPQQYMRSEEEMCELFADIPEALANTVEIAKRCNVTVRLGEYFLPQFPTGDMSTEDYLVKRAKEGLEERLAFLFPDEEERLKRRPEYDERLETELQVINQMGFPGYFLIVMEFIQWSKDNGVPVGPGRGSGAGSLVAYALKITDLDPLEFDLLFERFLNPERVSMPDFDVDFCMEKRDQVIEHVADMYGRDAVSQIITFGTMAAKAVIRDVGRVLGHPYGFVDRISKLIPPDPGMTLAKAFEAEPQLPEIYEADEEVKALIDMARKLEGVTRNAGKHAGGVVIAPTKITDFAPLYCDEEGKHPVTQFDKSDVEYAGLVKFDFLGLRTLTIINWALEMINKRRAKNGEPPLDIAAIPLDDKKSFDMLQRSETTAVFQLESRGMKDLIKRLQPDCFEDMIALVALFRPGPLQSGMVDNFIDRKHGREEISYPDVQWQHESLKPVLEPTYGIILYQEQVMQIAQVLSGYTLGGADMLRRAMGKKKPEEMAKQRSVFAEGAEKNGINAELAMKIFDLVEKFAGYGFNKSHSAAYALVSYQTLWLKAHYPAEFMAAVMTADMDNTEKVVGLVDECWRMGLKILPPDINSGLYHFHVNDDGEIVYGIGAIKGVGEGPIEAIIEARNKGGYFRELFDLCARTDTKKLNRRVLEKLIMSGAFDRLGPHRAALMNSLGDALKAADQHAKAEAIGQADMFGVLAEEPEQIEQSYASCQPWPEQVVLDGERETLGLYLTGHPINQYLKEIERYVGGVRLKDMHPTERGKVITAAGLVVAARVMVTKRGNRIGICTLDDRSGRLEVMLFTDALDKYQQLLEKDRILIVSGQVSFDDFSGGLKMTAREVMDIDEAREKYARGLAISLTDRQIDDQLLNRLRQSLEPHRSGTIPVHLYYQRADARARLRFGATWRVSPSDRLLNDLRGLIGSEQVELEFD
Description: In vitro DnaE single enzyme assay (E. coli). Type of assay: biochemical. A digest of the protocol: as §1

Assay [4] has as its system Pseudomonas aeruginosa MB5890 (CB1101, efflux-deleted). Description: microbe, parasite or virus in culture. To be noted: * = some reduction of growth versus control at […]; for P. aeruginosa MB5890 efflux-del (MIC): MHII broth; for MIC: Pseudomonas aeruginosa, read-out: P. aeruginosa MB5890 efflux-del (MIC), MHII broth. It is filed as cell-based.
Assay [5] has as its system Streptococcus pneumoniae MB6357 (CL 2883). Kind of assay: Nargenicin antibacterial assay (MIC), S. pneumoniae. Type of assay: cell-based. The following applies: * = some reduction of growth versus control at […]; for S. pneumoniae MB2883 (MIC): Isosensitest broth; for MIC: Streptococcus pneumoniae, read-out: S. pneumoniae MB2883 (MIC), Isosensitest broth.
The subject of assay [6] is Staphylococcus aureus MB6266 (MRSA COL). Description: Nargenicin antibacterial assay (MIC), S. aureus. Type of assay: cell-based. The following applies: * = some reduction of growth versus control at […]; for S. aureus COL (MIC): MHII broth + 50% human serum; for MIC: Staphylococcus aureus, MRSA, read-out: S. aureus COL (MIC), MHII broth + 50% human serum.
For assay [7], the system named is Escherichia coli MB5747 (LS 883, tolC). Kind of assay: microbe, parasite or virus in culture. Type of assay: cell-based. The following applies: * = some reduction of growth versus control at […]; for E. coli LS883 tolC (MIC): MHII broth; for MIC: Escherichia coli, read-out: E. coli LS883 tolC (MIC), MHII broth.
Setting [8] is: read-out: E. coli DnaE IC50 (converted).

For the compound `CO[C@H]1CC2C=C[C@H]3[C@H]4O[C@]2(/C(C)=C/[C@@H](C)[C@@H](C(C)O)OC1=O)[C@@H]3[C@H](O)[C@@H](C)[C@H]4OC(=O)c1cccn1C(=O)C(C)C` (stereo partly shown) [Example 204], the “MICs compared with nargenicin” value in assay [1] is recorded as “equal to or better than nargenicin”.

Take `CO[C@H]1C[C@H]2C=CC3C4[C@H](O)[C@@H](C)[C@@H](OC(=O)c5ccc[nH]5)[C@@H]3O[C@]42/C(C)=C/[C@@H](C)[C@@H]([C@@H](C)OC(=O)C(=O)NC(C)(C)C)OC1=O` [Example 116]: the “S. aureus DnaE IC50” value in assay [2] was determined as 0.006 µg/mL. The “E. coli DnaE IC50” value in assay [3] stood at 15 µg/mL. Also, the “P. aeruginosa MB5890 efflux-del (MIC)” value in assay [4] came to 8 µg/mL. Also, the “S. pneumoniae MB2883 (MIC)” value in assay [5] is reported as >128* μg/mL. Moreover, the “S. aureus COL (MIC)” value in assay [6] is no more than 0.125 µg/mL. In addition, the “E. coli LS883 tolC (MIC)” value in assay [7] came out at 0.25 µg/mL.

As for `CO[C@H]1C[C@H]2C=CC3C4[C@H](O)[C@@H](C)[C@@H](OC(=O)c5ccc[nH]5)[C@@H]3O[C@]42/C(C)=C/[C@@H](C)[C@@H]([C@@H](C)OC(=O)Nc2nnn[nH]2)OC1=O` [Example 65], the IC50 in assay [2] is less than 0.00957 µM; in assay [3] (setting [8]) it was 16 µM. Further, the MIC in assay [4] was 64 µg/mL (≈ 102 µM); in assay [5], greater than 128 µg/mL; in assay [6], 2 µg/mL; in assay [7] it was 2 µg/mL (≈ 3.19 µM).

As for `CO[C@H]1CC2C=C[C@H]3[C@H]4O[C@]2(/C(C)=C/[C@@H](C)[C@@H](C(C)NC2CC2)OC1=O)[C@@H]3[C@H](O)[C@@H](C)[C@H]4OC(=O)c1ccc[nH]1` (stereo partly shown) [Example 185], the IC50 is less than 0.0108 µM in assay [2] and greater than 180 µM in assay [3] (setting [8]). Further, the MIC in assay [4], in assay [5], in assay [6] and in assay [7] was greater than 128 µg/mL in each case.

Consider `CO[C@H]1C[C@H]2C=C[C@H]3[C@H]4O[C@]2(/C(C)=C/[C@@H](C)[C@@H]([C@@H](C)O)OC1=O)[C@@H]3[C@H](O)[C@@H](C)[C@H]4OC(=O)c1cccn1C` [Example 196], for which the half-maximal inhibitory concentration (IC50) in assay [2] was 9.82 µM; in assay [3] (setting [8]), greater than 189 µM. Besides, the MIC in assay [4] is greater than 128 µg/mL; in assay [5] it was 128 µg/mL (≈ 242 µM); in assay [6], greater than 128 µg/mL; in assay [7] it was 64 µg/mL (≈ 121 µM).

Turning to `CNS(=O)(=O)CCNC(=O)O[C@H](C)[C@H]1OC(=O)[C@@H](OC)C[C@H]2C=C[C@H]3[C@H]4O[C@]2(/C(C)=C/[C@H]1C)[C@@H]3[C@H](O)[C@@H](C)[C@H]4OC(=O)c1ccc[nH]1` [Example 13], the 50% inhibitory concentration (IC50) was less than 0.00883 µM in assay [2] and greater than 147 µM in assay [3] (setting [8]). Moreover, the MIC in assay [4] is greater than 128 µg/mL; in assay [5], greater than 128 µg/mL; in assay [6], 32 µg/mL; in assay [7], 8 µg/mL (≈ 11.8 µM).

Take `CO[C@H]1C[C@H]2C=CC3C4[C@H](O)[C@@H](C)[C@@H](OC(=O)c5ccc[nH]5)[C@@H]3O[C@]42/C(C)=C/[C@@H](C)[C@@H]([C@@H](C)OC(=O)C(=O)NCc2ccccc2CN(C)C)OC1=O` [Example 141]: the “S. aureus DnaE IC50” value in assay [2] was less than 0.006 µg/mL. Moreover, in assay [3], the “E. coli DnaE IC50” value came out at 1 µg/mL. Besides, in assay [4], the “P. aeruginosa MB5890 efflux-del (MIC)” value is 4 µg/mL. The “S. pneumoniae MB2883 (MIC)” value in assay [5] is >128* μg/mL. Further, in assay [6], the “S. aureus COL (MIC)” value is 0.25 µg/mL. In assay [7], the “E. coli LS883 tolC (MIC)” value came to 0.25 µg/mL.

In the case of `CO[C@H]1CC2C=C[C@H]3[C@H]4O[C@]2(/C(C)=C/[C@@H](C)[C@@H](C(C)O)OC1=O)[C@@H]3[C@H](O)[C@@H](C)[C@H]4OC(=O)c1[nH]c(I)c(I)c1I` (stereo partly shown) [Example 42], the results for the IC50 in assay [2] and in assay [3] (setting [8]) were 4.48 µM and 44.8 µM, respectively. The MIC in assay [4] is greater than 128 µg/mL; in assay [5] it was 1 µg/mL (≈ 1.12 µM); in assay [6], 32 µg/mL; in assay [7] it was greater than 128 µg/mL.

On to `CO[C@H]1C[C@H]2C=CC3C4[C@H](O)[C@@H](C)[C@@H](OC(=O)c5ccc[nH]5)[C@@H]3O[C@]42/C(C)=C/[C@@H](C)[C@@H]([C@@H](C)OS(=O)(=O)O)OC1=O` [Example 198], for which the IC50 was less than 0.0101 µM in assay [2] and 20.1 µM in assay [3] (setting [8]). The MIC was 64 µg/mL (≈ 107 µM) in assay [4], greater than 128 µg/mL in assay [5], 4 µg/mL in assay [6] and 4 µg/mL (≈ 6.72 µM) in assay [7].

On to `COC(=O)/C=C/c1c[nH]c(C(=O)O[C@@H]2[C@H](C)[C@@H](O)[C@@H]3[C@H]4C=CC5C[C@H](OC)C(=O)O[C@H](C(C)O)[C@H](C)/C=C(\C)[C@]53O[C@H]42)c1` (stereo partly shown) [Example 166], for which the 50% inhibitory concentration (IC50) in assay [2] was 0.3 µM; in assay [3] (setting [8]), greater than 83.4 µM. In addition, the MIC in assay [4] is greater than 64 µg/mL; in assay [5], greater than 64 µg/mL; in assay [6] it was greater than 64 µg/mL; in assay [7], 64 µg/mL (≈ 107 µM).

For `CO[C@H]1C[C@H]2C=CC3C4[C@H](O)[C@@H](C)[C@@H](OC(=O)c5ccc[nH]5)[C@@H]3O[C@]42/C(C)=C/[C@@H](C)[C@@H]([C@@H](C)OC(=O)C(=O)NC2CC2)OC1=O` [Example 117], the “S. aureus DnaE IC50” value in assay [2] amounted to 0.0007 µg/mL. Moreover, in assay [3], the “E. coli DnaE IC50” value was 11 µg/mL. The “P. aeruginosa MB5890 efflux-del (MIC)” value in assay [4] came to 4 µg/mL. In addition, the “S. pneumoniae MB2883 (MIC)” value in assay [5] turned out to be 128 µg/mL. The “S. aureus COL (MIC)” value in assay [6] was no more than 0.125 µg/mL. In addition, the “E. coli LS883 tolC (MIC)” value in assay [7] was no more than 0.125 µg/mL.

For `CO[C@H]1CC2C=C[C@H]3[C@H]4O[C@]2(/C(C)=C/[C@@H](C)[C@@H](C(C)=O)OC1=O)[C@@H]3[C@H](O)[C@@H](C)[C@H]4OC(=O)c1ccc[nH]1` (stereo partly shown) [Example 177], the IC50 in assay [2] is less than 0.0117 µM; in assay [3] (setting [8]), 8.76 µM. Further, the MIC is 8 µg/mL (≈ 15.6 µM) in assay [4], greater than 128 µg/mL in assay [5], 1 µg/mL in assay [6] and 0.5 µg/mL (≈ 0.974 µM) in assay [7].

`CO[C@H]1C[C@H]2C=C[C@H]3[C@H]4O[C@]2(/C(C)=C/[C@@H](C)[C@@H]([C@@H](C)O)OC1=O)[C@@H]3[C@H](O)[C@@H](C)[C@H]4OC(=O)c1ccc(Br)[nH]1` [Example 43]: the IC50 in assay [2] was 0.202 µM; in assay [3] (setting [8]), 75.7 µM. The MIC is greater than 128 µg/mL in assay [4], 128 µg/mL (≈ 215 µM) in assay [5], 64 µg/mL in assay [6] and 8 µg/mL (≈ 13.5 µM) in assay [7].

As for `CO[C@H]1C[C@H]2C=C[C@@H]3[C@H]4[C@H](O)[C@@H](C)C(n5ccnc5)[C@@H]3O[C@]42/C(C)=C/[C@@H](C)[C@@H]([C@@H](C)O)OC1=O` (stereo partly shown) [Example 149], the values for the IC50 in assay [2] and in assay [3] (E. coli DnaE IC50) were 23.3 µM and greater than 212 µM, respectively. Further, the MIC in assay [4] is 128 µg/mL (≈ 271 µM); in assay [5] it was greater than 128 µg/mL; in assay [6], greater than 128 µg/mL; in assay [7], 32 µg/mL (≈ 67.7 µM).
